How the values were obtained:
[1] = test system: LFA-1/D1-D2-Fc (ICAM-1) interaction; experiment: Steady-state FRET based competitive screening assay for inhibition of the LFA-1/D1-D2-Fc interaction; assay type: binding, human; conditions: for inhibition efficiency: 100 nM Alexa Fluor 488-LFA-1 + 100 nM Alexa Fluor 555-D1-D2-Fc, PBS, pH 7.4, 1 mM EGTA, 2 mM Mg^2+, 30 min, dark, calculated from FRET efficiency, Eq. (1); for FRET efficiency: mean ± rms, control without inhibitor 53.51 ± 0.10%, A/D = 2.12, excitation 470 nm, Eq. (3); for rank of inhibition efficiency among the three LFA-1 derived peptides: 0.02, 0.2, 2 and 20 µM
Protocol: But with increasing concentration of the lovastatin, the FRET efficiency decreased to 5.3% for 200 µM of lovastatin. The inhibition efficiency (%) was calculated for each concentration of lovastatin using the relation,
[drawing 1] (1) where Fcontrol is the FRET efficiency of the Alexa Fluor 488-LFA-1 and Alexa Fluor 555-D1-D2-Fc alone and Fx is that of the FRET mixture when incubated with inhibitors. The inhibition efficiency of lovastatin was calculated to be 69.48±0.77%, 73.84±0.56%, 84.98±0.10%, and 90.03±0.06% for 0.2, 2, 20, and 200 µM respectively [Fig. 7(a)].
To characterize and compare the inhibitory activity of the selected peptides, CD11a237–261, CD11a441–465, and CD11a456–465, the FRET mixture was incubated with several concentrations (0.02, 0.2, 2, and 20 µM) of the peptides (following the procedure described in the “Materials and Methods” section) and the FRET efficiency (Tables S3, S4, S5) and the inhibition efficiency [Fig. 7(b)] were calculated for each case. The inhibition efficiency for CD11a237–261 at 0.02, 0.2, 2, and 20 µM are 40.81±0.31%, 47.05±0.56%, 53.16±0.70%, 65.13±0.81%, respectively; the corresponding values for CD11a441–465, at the same concentrations, are 20.89±0.72%, 37.08±0.29%, 46.93±0.89%, 62.01±0.15%, respectively; and for CD11a456–465, the corresponding values are 12.17±0.91%, 20.26±0.69%, 36.46±0.42%, 51.41±0.33%. From these values, we note that the difference in inhibition efficiency of these three peptides is much more significant at low peptide concentration (on the order of 0.02 to 0.2 µM), the cause of which requires further investigation. Nevertheless, in all cases, the inhibition efficiency of CD11a237–261 is highest and CD11a456–465 the lowest, which are in good agreement with those reported in the literature.
The FRET efficiency can be adjusted by changing the fluorophore to protein ratio; the optimal acceptor to donor fluorophore (A/D) ratio was obtained following the procedure reported in the literature with slight modification. In short, A/D is defined as the number of the acceptor fluorophore molecules to donor molecule in the interacting protein complex. Several concentration ratios of Alexa Fluor 488-LFA-1 and Alexa Fluor 555-D1-D2-Fc were incubated for 30 minutes at room temperature and the FRET emission spectra were obtained via a fluorescence multiplate reader, Tecan Infinite M200 pro (Männedorf, Switzerland). For each concentration ratio, the concentration of the acceptor conjugate, Alexa Fluor 555-D1-D2-Fc, was kept constant. The optimal A/D ratio for the FRET pair was selected by comparing the FRET efficiencies for different A/D ratios. […] Due to these facts, we have used equation (3), [65] given below for the FRET efficiency (E) calculation which incorporates the cross-talk corrections for each of the A/D ratios. [drawing 3] (3) here, (λ470, λ) denotes the numerical integral of the emission spectrum between 560 and 610 nm when excited with 470 nm. fDA, fA, and fD represent the emission spectra of the FRET mixture, acceptor alone, and donor alone, respectively. The absorbance values of donor and acceptor, at the excitation maximum of Alexa Fluor 488 of 470 nm, is represented by A^D and A^A, respectively. […] In this article, the calculation was implemented assuming that there […] in the overlap integral with different F/P and the (associated) different A/D ratios. The optimal A/D ratio was used for the development of the FRET based screening platform for the assessment of peptides and small molecules for their inhibition efficiency of the LFA-1 and ICAM-1 interactions.
The donor, Alexa Fluor 488-LFA-1, with a concentration corresponding to the […] A/D ratio was mixed with each kind of LFA-1 derived peptides (CD11a237–261, CD11a441–465, and CD11a456–465) in PBS, pH 7.4, 1 mM EGTA and 2 mM Mg^2+. […]

[2] = test system: I-domain of LFA-1 (CD11a I-domain); conditions: ref [58]; cited from earlier work
From the text: In our study, we identified three LFA-1 derived peptides, CD11a237–261, […], and CD11a456–465, to compare their inhibition efficiency via our steady-state FRET based competitive screening assay. Moreover, the inhibition efficiency of lovastatin, a well-known potent inhibitor of the ICAM-1 interaction, was also obtained to further validate the FRET screening platform. ...

[3] = test system: human immunodeficiency virus type 1; conditions: ref [59]; cited from earlier work
[4] = test system: interaction of ICAM-1 with LFA-1; parameters: method as in PMID 12368073; conditions: ref [34]; cited from earlier work
From the text: Based on these roles in several disease pathologies, the LFA-1/ICAM-1 interaction can serve as a potential therapeutic target in the development of new therapies for the autoimmune diseases, metastasis cancer, and viral diseases. […] Furthermore, several […] therapies were developed for the treatment of autoimmune diseases. However, […] therapies have serious side effects in humans due to their large molecular structure an ...

Row | Molecule | inhibition efficiency ([1]; 0.02 µM inhibitor) [%] | FRET efficiency ([1]; 0.02 µM inhibitor) [%] | inhibition efficiency ([1]; 0.2 µM inhibitor) [%] | FRET efficiency ([1]; 0.2 µM inhibitor) [%] | inhibition efficiency ([1]; 2 µM inhibitor) [%] | FRET efficiency ([1]; 2 µM inhibitor) [%] | inhibition efficiency ([1]; 20 µM inhibitor) [%] | FRET efficiency ([1]; 20 µM inhibitor) [%] | rank of inhibition efficiency among the three LFA-1 derived peptides [1] | binding to the I-domain of LFA-1 [2] | effect on HIV-1 replication [3] | inhibition efficiency ([1]; 200 µM inhibitor) [%] | FRET efficiency ([1]; 200 µM inhibitor) [%] | FRET efficiency ([1]; 200 µM inhibitor, listed as Lovastatin) [%] | inhibition of the interaction of ICAM-1 with LFA-1 [4]
1 | GVDVDQDGETEL-IGAPLFYGEQRG [CD11a441–465, LFA-1α derived peptide, purchased from GenScript] | 20.89±0.72 | 42.33 ± 0.23 | 37.08±0.29 | 33.67 ± 0.51 | 46.93±0.89 | 28.40 ± 0.02 | 62.01±0.15 | 20.33 ± 0.53 | – | – | – | – | – | – | –
2 | APLFY- GEQRG [CD11a456–465, LFA-1α derived peptide, purchased from GenScript] | 12.17±0.91 | 47.00 ± 0.81 | 20.26±0.69 | 42.67 ± 0.57 | 36.46±0.42 | 34.00 ± 0.08 | 51.41±0.33 | 26.00 ± 0.58 | the lowest | – | – | – | – | – | –
3 | CC[C@H](C)C(=O)O[C@H]1C[C@@H](C)C=C2C=C[C@H](C)[C@H](CC[C@@H]3C[C@@H](O)CC(=O)O3)[C@H]21 [lovastatin, reference compound] | – | – | 69.48±0.77 | 16.33 ± 0.76 | 73.84±0.56 | 14.00 ± 0.57 | 84.98±0.10 | 8.03 ± 0.01 | – | binds with the highly conserved I-domain of LFA-1 | reduction of human immunodeficiency virus type 1 replication | 90.03±0.06 | 5.3 | 5.33 ± 0.01 | specifically inhibits the interaction of ICAM-1 with LFA-1
4 | ITDGEATDSGNIDAAKDIIR-YIIGI [CD11a237–261, LFA-1α derived peptide, purchased from GenScript] | 40.81±0.31 | 31.67 ± 0.06 | 47.05±0.56 | 28.33 ± 0.51 | 53.16±0.70 | 25.06 ± 0.66 | 65.13±0.81 | 18.66 ± 0.06 | highest inhibition efficiency | – | – | – | – | – | –

Reference: PMC4102529, “FRET Based Quantification and Screening Technology Platform for the Interactions of Leukocyte Function-Associated Antigen-1 (LFA-1) with InterCellular Adhesion Molecule-1 (ICAM-1)” (PLoS ONE, 2014)
